Active and inactive are the calls of the source.
Legend:
[1] = biological target: T1, Short transient receptor potential channel 4 (Mus musculus, UniProt Q9QUQ5); experiment: mouse TRPC4 channel inhibitors, dose response, cell-based, HEK293 TRPC4/mu-opioid, Fluo-4 calcium (AID 434942); format: functional;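 further: potency of inhibitors blocking the TRPC4 calcium response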
T1 sequence (Q9QUQ5 whole entry): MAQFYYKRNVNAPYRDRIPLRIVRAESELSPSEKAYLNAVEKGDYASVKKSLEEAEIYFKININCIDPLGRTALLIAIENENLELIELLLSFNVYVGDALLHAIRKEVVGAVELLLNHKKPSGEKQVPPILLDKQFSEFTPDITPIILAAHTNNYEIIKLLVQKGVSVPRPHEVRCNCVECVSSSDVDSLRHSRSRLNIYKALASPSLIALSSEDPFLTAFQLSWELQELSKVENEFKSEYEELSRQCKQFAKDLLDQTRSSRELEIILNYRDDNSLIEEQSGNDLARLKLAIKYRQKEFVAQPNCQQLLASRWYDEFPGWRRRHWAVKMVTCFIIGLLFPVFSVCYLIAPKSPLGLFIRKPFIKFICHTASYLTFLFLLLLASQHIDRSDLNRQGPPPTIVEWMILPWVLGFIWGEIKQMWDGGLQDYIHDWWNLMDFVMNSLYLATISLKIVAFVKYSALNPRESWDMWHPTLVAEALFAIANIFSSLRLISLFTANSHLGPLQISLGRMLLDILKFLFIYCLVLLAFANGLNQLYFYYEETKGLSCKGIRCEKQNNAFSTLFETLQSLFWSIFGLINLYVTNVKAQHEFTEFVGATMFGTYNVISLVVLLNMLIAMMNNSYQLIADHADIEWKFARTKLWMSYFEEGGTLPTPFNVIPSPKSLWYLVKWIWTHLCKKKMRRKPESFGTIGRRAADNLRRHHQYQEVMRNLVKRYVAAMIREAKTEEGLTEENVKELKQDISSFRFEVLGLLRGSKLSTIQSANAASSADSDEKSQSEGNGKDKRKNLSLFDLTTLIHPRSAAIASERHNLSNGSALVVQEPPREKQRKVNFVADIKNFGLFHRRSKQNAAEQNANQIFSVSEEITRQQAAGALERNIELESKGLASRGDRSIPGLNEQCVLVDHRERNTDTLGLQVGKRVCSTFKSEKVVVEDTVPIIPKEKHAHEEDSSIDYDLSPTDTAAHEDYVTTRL

[2] = biological target: T2, Replicative DNA helicase DnaB (Mycobacterium tuberculosis, UniProt P9WMR3); experiment: DnaB intein splicing inhibitors, dose response, biochemical, cell-free fluorescence (AID 449749); format: functional
T2 sequence (P9WMR3 whole entry): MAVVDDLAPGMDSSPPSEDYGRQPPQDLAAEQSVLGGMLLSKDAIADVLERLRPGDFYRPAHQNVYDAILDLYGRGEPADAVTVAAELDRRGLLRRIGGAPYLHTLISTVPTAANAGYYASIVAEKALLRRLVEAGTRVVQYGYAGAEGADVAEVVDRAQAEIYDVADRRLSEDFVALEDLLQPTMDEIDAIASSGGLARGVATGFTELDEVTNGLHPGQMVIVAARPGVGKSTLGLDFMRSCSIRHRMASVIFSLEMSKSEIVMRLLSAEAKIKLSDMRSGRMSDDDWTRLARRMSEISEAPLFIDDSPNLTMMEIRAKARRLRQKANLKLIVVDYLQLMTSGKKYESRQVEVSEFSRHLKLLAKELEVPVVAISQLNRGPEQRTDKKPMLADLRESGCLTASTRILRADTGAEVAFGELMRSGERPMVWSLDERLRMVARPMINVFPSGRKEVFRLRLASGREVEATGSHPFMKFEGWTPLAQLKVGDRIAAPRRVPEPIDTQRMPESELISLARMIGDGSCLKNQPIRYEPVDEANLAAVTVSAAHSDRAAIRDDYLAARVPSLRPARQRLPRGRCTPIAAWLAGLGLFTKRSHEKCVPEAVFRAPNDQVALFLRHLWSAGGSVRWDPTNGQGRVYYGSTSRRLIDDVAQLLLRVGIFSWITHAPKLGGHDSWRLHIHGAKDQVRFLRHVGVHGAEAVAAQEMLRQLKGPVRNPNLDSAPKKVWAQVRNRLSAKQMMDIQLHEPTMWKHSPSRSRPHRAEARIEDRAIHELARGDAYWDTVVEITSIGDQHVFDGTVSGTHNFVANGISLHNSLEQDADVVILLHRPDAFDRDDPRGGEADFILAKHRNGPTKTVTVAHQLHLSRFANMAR

[3] = biological target: T3, Protein RecA (Mycobacterium tuberculosis, UniProt P9WHJ3); experiment: Fluorescence Cell-Free Homogeneous Dose Retest to Identify Inhibitors of RecA-Intein Splicing Activity. [Related pubchem assays (depositor defined):AID2097, AID2223, AID489010, AID492950]; format: functional
T3 sequence (P9WHJ3 whole entry): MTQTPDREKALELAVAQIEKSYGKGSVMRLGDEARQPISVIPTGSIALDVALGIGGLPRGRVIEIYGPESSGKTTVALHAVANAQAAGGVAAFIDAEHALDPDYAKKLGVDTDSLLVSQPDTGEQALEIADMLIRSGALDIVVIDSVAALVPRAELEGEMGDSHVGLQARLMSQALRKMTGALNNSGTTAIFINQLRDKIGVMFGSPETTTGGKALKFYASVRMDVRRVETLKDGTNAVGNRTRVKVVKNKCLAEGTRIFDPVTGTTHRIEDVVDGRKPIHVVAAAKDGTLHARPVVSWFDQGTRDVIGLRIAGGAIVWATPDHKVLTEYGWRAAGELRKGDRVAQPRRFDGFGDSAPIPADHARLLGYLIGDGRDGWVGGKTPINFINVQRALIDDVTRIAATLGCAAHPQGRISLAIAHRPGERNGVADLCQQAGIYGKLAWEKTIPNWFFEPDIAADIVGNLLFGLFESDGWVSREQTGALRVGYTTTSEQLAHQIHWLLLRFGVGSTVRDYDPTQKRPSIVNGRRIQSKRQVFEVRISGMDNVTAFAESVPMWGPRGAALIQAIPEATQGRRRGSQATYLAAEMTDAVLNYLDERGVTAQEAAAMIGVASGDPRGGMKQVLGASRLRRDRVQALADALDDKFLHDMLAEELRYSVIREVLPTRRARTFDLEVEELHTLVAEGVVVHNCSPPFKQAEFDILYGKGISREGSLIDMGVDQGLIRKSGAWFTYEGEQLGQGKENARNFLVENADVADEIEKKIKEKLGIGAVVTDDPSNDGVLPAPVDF

[4] = system: HEK293; experiment: cells; format: functional, cell-based; details: Homo sapiens
[5] = system: INS1; experiment: beta cell apoptosis inhibitors, cytokine rescue, dose response, luminescence, retest (AID 449756); format: functional, cell-based; details: Rattus norvegicus;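 further: cell death triggered by IL-1 beta plus TNF-alpha plus IFN-gamma mixture; protective hits raise ATP signal compared with cytokine alone wells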
[6] = system: HEK293; experiment: NOD2 signaling inhibitors in MDP-stimulated cells, cell-based, uHTS, luminescence (AID 2001); format: functional; details: Homo sapiens
[7] = system: HEK293; experiment: cells; format: functional, cell-based; details: Homo sapiens; remark: listed apart in the source
[8] = system: HEK293; experiment: NOD1 signaling inhibitors, primary screen, cell-based, luminescence, uHTS (AID 1578); format: functional; details: Homo sapiens
[9] = Luminescence Cell-Based Dose Confirmation HTS to Identify Inhibitors of Platelet Dense Granule Release. [Related pubchem assays: 1663 (Primary HTS), 1678 (Summary of Project)]; format: functional
[10] = biological target: Luciferin 4-monooxygenase (Photinus pyralis, UniProt P08659); experiment: firefly luciferase enzyme inhibitors, dose response, biochemical, luminescence (AID 1891)
Chain of Luciferin 4-monooxygenase (P08659 whole entry): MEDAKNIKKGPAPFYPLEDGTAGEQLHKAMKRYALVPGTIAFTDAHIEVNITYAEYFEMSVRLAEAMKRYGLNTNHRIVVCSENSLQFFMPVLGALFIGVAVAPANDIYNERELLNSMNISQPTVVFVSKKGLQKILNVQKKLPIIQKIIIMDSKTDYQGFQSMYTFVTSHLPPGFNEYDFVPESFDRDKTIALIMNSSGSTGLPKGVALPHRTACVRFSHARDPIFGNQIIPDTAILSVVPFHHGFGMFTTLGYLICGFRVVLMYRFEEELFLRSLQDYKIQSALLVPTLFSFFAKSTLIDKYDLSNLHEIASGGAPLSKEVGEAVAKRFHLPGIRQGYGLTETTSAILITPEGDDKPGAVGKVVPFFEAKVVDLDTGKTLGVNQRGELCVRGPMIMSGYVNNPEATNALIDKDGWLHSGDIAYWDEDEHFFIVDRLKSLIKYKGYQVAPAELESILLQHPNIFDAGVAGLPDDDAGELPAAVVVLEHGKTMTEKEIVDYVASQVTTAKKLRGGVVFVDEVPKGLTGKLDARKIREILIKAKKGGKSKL

[11] = biological target: Cytochrome P450 3A4 (Homo sapiens, UniProt P08684); details: Potency;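 further: confirmatory qHTS run detecting inhibitors and substrates of CYP3A4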
Chain of Cytochrome P450 3A4 (P08684 whole entry): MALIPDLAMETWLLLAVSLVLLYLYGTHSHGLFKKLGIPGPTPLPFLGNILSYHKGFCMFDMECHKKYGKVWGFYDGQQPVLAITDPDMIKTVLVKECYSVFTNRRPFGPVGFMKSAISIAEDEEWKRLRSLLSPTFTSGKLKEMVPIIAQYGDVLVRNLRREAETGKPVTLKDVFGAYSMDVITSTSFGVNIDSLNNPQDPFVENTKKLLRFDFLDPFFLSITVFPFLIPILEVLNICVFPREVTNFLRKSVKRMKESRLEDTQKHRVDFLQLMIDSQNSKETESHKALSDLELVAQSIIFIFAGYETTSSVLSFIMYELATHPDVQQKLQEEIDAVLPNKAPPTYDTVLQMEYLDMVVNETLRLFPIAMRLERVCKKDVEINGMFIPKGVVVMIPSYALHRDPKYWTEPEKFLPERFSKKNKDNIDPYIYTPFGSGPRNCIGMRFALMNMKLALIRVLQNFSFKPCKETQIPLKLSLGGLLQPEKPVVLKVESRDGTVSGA

[12] = cytotoxicity in HEK-293T cells, dose response, cytotoxicity control for TCR NF-kB inhibitor project, luminescence, T-cell screen hits (AID 489026); format: functional, cell-based;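 further: cells exposed to compound about 14 hours before the viability readout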
[13] = biological target: Protein Wnt-3a (Mus musculus, UniProt P27467); experiment: Wnt3a-driven reporter signaling inhibition, dose response, selectivity assay for Gli-SUFU antagonist project, Wnt-LIGHT cells, luminescence (AID 651570); format: functional; details: read-out: IC50_Mean;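 further: Wnt-LIGHT reporter cells stimulated with conditioned medium from Wnt3a-producing cells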
Chain of Protein Wnt-3a (P27467 whole entry): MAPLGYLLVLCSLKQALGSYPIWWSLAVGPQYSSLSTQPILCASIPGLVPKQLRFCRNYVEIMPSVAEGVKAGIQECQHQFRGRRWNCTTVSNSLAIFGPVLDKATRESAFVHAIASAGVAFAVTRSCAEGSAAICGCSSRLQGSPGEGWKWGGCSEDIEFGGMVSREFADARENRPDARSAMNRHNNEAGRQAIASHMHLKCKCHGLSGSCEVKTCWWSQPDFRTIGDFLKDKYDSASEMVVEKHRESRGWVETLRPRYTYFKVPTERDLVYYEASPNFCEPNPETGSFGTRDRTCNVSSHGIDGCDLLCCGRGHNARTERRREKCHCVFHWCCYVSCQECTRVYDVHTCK

[14] = control 3'UTR Renilla luciferase suppression, dose response, counter-screen for Shn3 inhibitor project, cell-based, Clone20-Shn3RL, cherry-picked (AID 624133); format: functional
[15] = Shn3 3'UTR reporter inhibitors, dose response, cell-based, Clone20 osteoblasts, firefly luciferase, cherry-picked (AID 624132); format: functional;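 further: firefly luciferase luminescence from reporter carrying the Shn3 3'UTR in osteoblasts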
[16] = Luminescence Cell-Based Dose Retest to Confirm Inhibitors of Cancer Stem Cells. [Related pubchem assays (depositor defined):AID2717, AID2721]; format: functional; details: Homo sapiens
[17] = system: BJ; experiment: cytotoxicity toward BJ-TERT-LT-ST fibroblasts, dose response, cell-based, RAS-independent, luminescence (AID 1935); format: functional; details: Homo sapiens;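 further: BJ fibroblasts immortalized with TERT plus LT and ST oncogenes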
[18] = system: BJ; experiment: cells; format: functional, cell-based; details: Homo sapiens
[19] = cytotoxicity toward DRD oncogenic fibroblasts, dose response, cell-based, non-viral oncogenic, luminescence (AID 1934); format: functional; details: Homo sapiens
[20] = system: BJ; experiment: cytotoxicity toward BJ-TERT fibroblasts, dose response, cell-based, RAS-independent, luminescence (AID 1933); format: functional; details: Homo sapiens
[21] = intracellular Trypanosoma cruzi inhibitors in host cells – cell-based, plate reader, cherry-pick samples, set 3, dose response (AID 651818); format: functional;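 further: compounds incubated with infected cells for about four days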

SMILES: OCCNCc1cc(Br)ccc1OCc1ccc(F)cc1
- EC50 [1]: 1.88 µM (active)

SMILES: O=C(C(Cl)Cl)N1c2ccccc2OCC1c1ccccc1 (configuration not stated)
- AC50 [2]: 10 µM (active)
- EC50 [3]: 1.25 µM (active)
- IC50 [4]: 16.9 µM (active)
- AC50 [5]: 8.54 µM (active)
- IC50 [6]: > 20 µM (inactive)
- IC50 [7]: > 20 µM (inactive)
- EC50 [8]: 13.8 µM (active)

SMILES: CCN(CC)Cc1cc(CCNC(=O)c2ccc(Cl)cc2)ccc1O
- EC50 [1]: 4.73 µM (active)

SMILES: CCCCC(=O)N(c1ccc(C(=O)O)cc1)c1nc(-c2ccc(Cl)cc2)c(CC)s1
- EC50 [9]: > 112 µM (not active)
- EC50 [10]: > 112 µM (not active)
- EC50 [1]: 10.6 µM (active)

SMILES: CC(=O)C1CCC2C3CC(C)C4=CC(=O)CC[C@@]4(C)C3C(O)C[C@@]12C (some centres not stated)
- AC50 [11]: 31.6 µM (inconclusive)

SMILES: CC[C@]1(O)CC(O[C@@H]2CC(N(C)C)C(O)C(C)O2)c2c(cc3c(c2O)C(=O)c2c(O)cccc2C3=O)C1C(=O)OC (some centres not stated)
- AC50 [11]: 39.8 µM (inconclusive)

SMILES: COC(C1CCCCC1)C(C)C(OCc1cccc(Br)c1)C(C)CO (configuration not stated)
- AC50 [11]: 3.16 µM (inconclusive)

SMILES: CC(Sc1n[nH]c2c3ccccc3nc-2n1)C(=O)N(C)C1CCCCC1 (configuration not stated)
- IC50 [4]: 6.41 µM (active)
- AC50 [5]: 16.1 µM (active)
- IC50 [6]: 6.67 µM (active)
- IC50 [7]: 12.9 µM (active)
- EC50 [8]: 4.74 µM (active)

SMILES: CC(C)(C)OC(=O)NCCCCCc1cn(CC(=O)NCCCCCCCCCCC(=O)N2CCN(C(=O)OC(C)(C)C)CC2)nn1
- IC50 [12]: > 80 µM (inactive)
- IC50 [13]: 21.9 µM (inactive)

SMILES: CC1CC(O)[C@]2(O)[C@]13CC(=O)OC[C@@]2(C)[C@@](C)(O)C(=O)C3 (some centres not stated)
- AC50 [11]: 31.6 µM (inconclusive)

SMILES: Cc1cccc(CCN2C(N(C)C)=NC[C@@H]2CC(C)C)c1
- AC50 [14]: 8.04 µM (active)
- AC50 [15]: 1.45 µM (active)
- IC50 [13]: 9.13 µM (active)

SMILES: Nc1nc(/C(=C/CC(=O)O)C(=O)NC2C(=O)N3C(C(=O)O)=CCSC23)cs1 (configuration not stated)
- AC50 [11]: 31.6 µM (inconclusive)

SMILES: Cc1nc(C2CCC3C4CCC5=CC(=O)CC[C@]5(C)C4CC[C@]23C)cs1 (some centres not stated)
- IC50 [4]: 3.42 µM (active)
- AC50 [16]: 6.32 µM (active)
- IC50 [6]: 3.56 µM (active)
- IC50 [7]: 9.14 µM (active)
- EC50 [8]: 2.24 µM (active)

SMILES: NC(=O)c1nsc(C(=O)N(Cc2ccccc2F)C(C(=O)NCC2CCCO2)c2ccc(F)cc2)c1N (configuration not stated)
- EC50 [1]: 0.473 µM (active)

SMILES: CCCC(=O)Nc1nc2ccc(NC(=O)c3c(F)c(F)c(OC)c(F)c3F)cc2s1
- EC50 [17]: 77.5 µM (inconclusive)
- AC50 [16]: 0.367 µM (active)
- IC50 [12]: > 80 µM (inactive)
- EC50 [18]: > 150 µM (not active)
- EC50 [19]: 2.2 µM (active)
- EC50 [20]: 4.47 µM (active)

SMILES: COCCNc1nc2c(c(=O)n(C)c(=O)n2C)n1Cc1cccc(C(F)(F)F)c1
- IC50 [13]: 5.24 µM (active)
- AC50 [5]: 6.6 µM (active)

SMILES: Cn1nc(CC(=O)NCc2ccc(C(F)(F)F)cc2)c2ccccc2c1=O
- IC50 [13]: 1.09 µM (active)

SMILES: O=C(c1ccc(Cl)cc1)C1CCCN(C2CCSCC2)C1 (configuration not stated)
- EC50 [1]: 0.531 µM (active)

SMILES: C/C(=N\Nc1ccc(Cl)nn1)c1ccccc1O
- IC50 [13]: 50 µM (inactive)

SMILES: COc1cc(/C=N/Nc2nc3c(c(=O)n(C)c(=O)n3C)n2Cc2ccccc2)ccc1OC(=O)c1ccco1
- IC50 [4]: 3.73 µM (active)
- IC50 [6]: 5.98 µM (active)
- IC50 [7]: 12.3 µM (active)
- EC50 [8]: 5.22 µM (active)

SMILES: C[C@@H]1CN([C@@H](C)CO)C(=O)Cc2cc(NC(=O)Nc3cccc4ccccc34)ccc2O[C@@H]1CN(C)Cc1ccc(Cl)c(Cl)c1
- AC50 [21]: 3.21 µM (active)

SMILES: COc1ccc(CN(C)C[C@H]2Oc3ccc(NC(=O)Cc4cn(C)c5ccccc45)cc3CC(=O)N([C@@H](C)CO)C[C@@H]2C)cc1
- AC50 [21]: 3.08 µM (active)

SMILES: C[C@@H]1CN([C@H](C)CO)C(=O)c2cccc(NS(=O)(=O)c3ccc(F)cc3)c2O[C@@H]1CN(C)Cc1ccc(C(=O)Nc2ccccc2N)cc1
- AC50 [21]: 2.86 µM (active)

SMILES: COC(=O)CC1C(C)(C)C(OC(C)=O)C2CC3=C4CC(=O)OC(c5ccoc5)[C@]4(C)CCC3[C@@]1(C)C2=O (some centres not stated)
- AC50 [11]: 1.58 µM (inconclusive)
